Reference: patent US20190388459A1, “NEW THERAPEUTIC USES” (ATLANTIC PHARMACEUTICALS (HOLDINGS) LTD, priority 2017, published 2019)
Marks after values point to notes of the source that are not given here.

What was measured:
[1] = system: OVA-induced allergic asthma mouse model; experiment: Ovalbumin-induced murine model of allergic asthma, BALF analysis; format: in vivo, Balb/c mice; settings: Day 28, alicaforsen 1 mM IN 30 μl, dexamethasone 10 mg/kg IP, days 14, 25-27
Description: Allergic asthma was modeled in female BALB/c mice by initial sensitization to OVA followed by subsequent intranasal challenge of purified OVA.
Mice were monitored throughout the study for changes in body weight and general signs of sickness. Allergic response to OVA was measured by examining bronchoalveolar lavage fluid (BALF) for inflammatory cell influx and the presence of the inflammatory cytokine IL-13.
On days 0 and 14, each animal was administered an IP injection of 200 μL OVA/Alum emulsion containing 100 μg OVA.
On days 14 and 25-27, each animal was administered an intranasal challenge of 30 μL PBS containing 50 μg OVA.
Treatments were performed on the same days as OVA challenge on Study Days 14 and 25-27 (4 total treatments). Treatments were administered 1 hour following OVA challenge.
10 mg/kg dexamethasone was administered in 200 μL volume/animal (intraperitoneal) on Study Days 14 and 25-27 (4 total treatments).
Bonchoalveolar lavage was performed on euthanised animals. Briefly, an angiocatheter was placed into trachea. 1 mL of PBS was instilled into the lungs and allowed to flow back out into the syringe; the PBS was then instilled and removed again. The resultant Bronchoalveolar lavage fluid (BALF) was centrifuged at 500×g for 5 mins.
The non-cellular portion of the BALF was stored at −80° C. The levels of IL-13 were analyzed by Luminex technology.
The cellular portion of the BALF was used to analyze the cell influx. The total number of leukocytes within the BALF and different cell types present were examined via flow cytometry.
Granulocytes: CD45^+; Non-autofluorescent; Gr-1^+
Eosinophils: CD45^+; Non-autofluorescent; Gr-1^+; Siglec F^+

dry eye murine model = experiment: Scopolamine dry eye murine model, corneal fluorescein staining and clinical signs; format: in vivo, Mouse C57BL/6N; settings: for Corneal fluorescein staining score (mean ± SD): one dose per day, topical both eyes
Description: In a model of mice, the application of transdermal scopolamine patches to the mid-tail is used to reduce aqueous tear production and thus mimic lacrimal gland insufficiency. The function of scopolamine is to induce a pharmacologic blockade of cholinergic receptors in the lacrimal gland and therefore to decrease aqueous production. The desiccation is amplified by adding environmental stress. Animals are exposed to a low-humidity environment and constant airflow.
Mice were treated with transdermal scopolamine administration (0.5 mg/72 h; Scopoderm TTS®). The transdermal scopolamine patch was wrapped near the tail base of the mouse, secured with cellophane tape. Patches were reapplied every 48 hours.
Mice were randomized into 4 groups of 10 animals. The study was divided into 2 experimental sets with 5 animals of each group represented.
All test items, control items and comparator item were instilled in both eyes (5 μL per administration), using a micropipette.
Tear production and corneal defects were assessed at baseline, on Days 3, 6 and 10 using phenol red thread (PRT) and corneal fluorescence staining (CFS), respectively, for each animal of the 4 groups.
Each day, the general clinical signs and the appearance of all animals was observed.
At the different time points the measurement was performed before administration on Day 3 and at least one hour after the second treatment for the other days of the study. The eyes of the animals from all groups were examined by slit-lamp observation using blue light after 0.5% fluorescein eye drop instillation (0.5 μL). Punctuate staining was recorded with the standardized National Eye Institute (NEI) grading system giving a 0-3 score to each of the 5 areas in which the corneas were divided.

TLR9 [2] = target: T1, TLR9 (Homo sapiens, UniProt Q9NR96); experiment: Effect of heat, Na+, Mg++ and spermine pre-treatment on TLR-9 antagonist activity; format: cell-based; settings: pre-treated with 5 mM spermine, heated to 90° C. and cooled; 1.0 uM ODN2006
T1 sequence (Q9NR96 26-1032): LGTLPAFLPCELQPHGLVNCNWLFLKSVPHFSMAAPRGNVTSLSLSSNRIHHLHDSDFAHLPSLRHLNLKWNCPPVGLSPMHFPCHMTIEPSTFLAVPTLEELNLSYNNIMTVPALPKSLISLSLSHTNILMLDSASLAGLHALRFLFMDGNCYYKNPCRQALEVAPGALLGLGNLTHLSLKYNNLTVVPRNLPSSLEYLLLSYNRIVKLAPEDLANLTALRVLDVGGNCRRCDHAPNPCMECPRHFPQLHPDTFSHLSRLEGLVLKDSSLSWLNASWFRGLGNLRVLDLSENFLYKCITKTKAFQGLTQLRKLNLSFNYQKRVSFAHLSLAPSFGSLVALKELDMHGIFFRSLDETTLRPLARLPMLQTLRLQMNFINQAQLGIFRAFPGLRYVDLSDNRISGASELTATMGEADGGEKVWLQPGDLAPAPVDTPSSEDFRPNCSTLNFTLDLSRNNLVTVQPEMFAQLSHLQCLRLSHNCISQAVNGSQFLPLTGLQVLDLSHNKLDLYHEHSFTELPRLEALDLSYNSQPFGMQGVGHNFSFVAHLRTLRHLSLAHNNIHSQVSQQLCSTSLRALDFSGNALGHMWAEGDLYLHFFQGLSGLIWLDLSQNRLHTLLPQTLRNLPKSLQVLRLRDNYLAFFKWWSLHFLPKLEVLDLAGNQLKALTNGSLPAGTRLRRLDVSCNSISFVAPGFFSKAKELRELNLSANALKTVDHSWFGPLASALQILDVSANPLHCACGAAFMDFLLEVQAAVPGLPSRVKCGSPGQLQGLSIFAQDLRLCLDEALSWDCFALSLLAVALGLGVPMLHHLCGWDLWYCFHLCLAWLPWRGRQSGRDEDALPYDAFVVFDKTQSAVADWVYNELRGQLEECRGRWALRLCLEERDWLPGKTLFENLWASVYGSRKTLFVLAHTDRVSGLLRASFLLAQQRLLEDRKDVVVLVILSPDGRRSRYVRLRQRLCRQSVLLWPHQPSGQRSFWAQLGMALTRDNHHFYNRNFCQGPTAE
Description: The samples and conditions of these tests are diagramed in FIG. 9.
One sample remained at room temperature while the remaining samples were heated to 90° C. for 3 min and then allowed to cool to room temperature. The samples were then diluted to the indicated concentrations and incubated with the target cells for 1 hr, prior to the addition of 1.0 uM ODN2006 to stimulate TLR-9.

[3] = Circular Dichroism spectroscopy, thermal stability of secondary structure; format: physicochemical
Description: SEQ ID NO: 1 was therefore subjected to Circular Dichroism (CD) spectroscopy to gather information about the possible secondary structure. CD of DNA can be utilized to detect all 3 major forms of duplex structure (B, A and Z) and is sensitive to conditions that disrupt the structure such a heating. Of interest was the stability of any secondary structure detected at or above physiologic temperatures.
Additional thermal denaturation of the putative duplex was also studied in the presence of Na^+ at concentrations of 50 mM and 150 mM. Sodium fluoride was used as Cl^− ions interfere with the CD spectra in this UV region.
Additional experiments were conducted to test the influence of Mg^++ and polyamines on the stability of the structure.

TLR9 [4] = target: T1, TLR9; experiment: TLR9 activation (agonist) screen, TLR9/NF-kB luciferase reporter HEK 293 cell line; format: cell-based; parameters: host or cells: HEK 293 (TLR9/NF-kB luciferase reporter line); settings: up to concentrations as high as 100 uM
Description: […] Briefly, the TLR9/NF-kB luciferase reporter HEK 293 cell line (Abeomics, San Diego, Calif.) was plated in 96-well white solid plates at 5×10^4 cells per well for 16 h. […] Luciferase activity was then measured and analyzed.

TLR9 [5] = target: T1, TLR9; experiment: Inhibition of TLR9-mediated NF-kB induction activated by CpG ODN2006, luciferase reporter HEK 293 cell line; format: cell-based; parameters: host or cells: HEK 293 (TLR9/NF-kB luciferase reporter line)
Description: Briefly, the TLR9/NF-kB luciferase reporter HEK 293 cell line was plated in 96-well white solid plates at 5×10^4 cells per well for 16 h. […] Cells were then treated with 20 ug/ml of CpG ODN2006 to activate TLR9. After 16 h, luciferase activity was measured and analyzed.

TLR9 [6] = target: T1, TLR9; experiment: TLR-9 antagonist activity with E. coli genomic DNA as the activator; format: cell-based

Compound: C[C@@H]1C[C@H]2[C@@H]3CCC4=CC(=O)C=C[C@]4(C)[C@@]3(F)[C@@H](O)C[C@]2(C)[C@@]1(O)C(=O)CO [Dexamethasone]
- BALF IL-13, Mean [1]: 13.2** pg/ml
- Total CD45 cells in BALF, Mean [1]: 236574
- Eosinophil (Frequency of CD45+) in BALF, Mean ([1]; in % (unit assumed)): 46.60**
- Granulocyte (Frequency of CD45+) in BALF, Mean ([1]; in % (unit assumed)): 51.88**

Compound: alicaforsen (GCCCAAGCTGGCATCCGTCA; chemistry not given here; listed as Homo sapiens) [SEQ ID NO: 1]
- tolerability of multiple topical administrations (dry eye murine model; 1 mM and 10 mM, topical ocular): clinically well tolerated
- Corneal fluorescein staining score (mean ± SD) (dry eye murine model; Day 6, 1 mM): 10.5 ± 2.6
- Corneal fluorescein staining score (mean ± SD) (dry eye murine model; Day 6, 10 mM): 10.8 ± 2.0
- Corneal fluorescein staining score (mean ± SD) (dry eye murine model; Day 10, 1 mM, listed as ALICAFORSEN): 9.3 ± 3.1
- Corneal fluorescein staining score (mean ± SD) (dry eye murine model; Day 10, 1 mM, listed as alicaforsen): lower than the Vehicle group
- Corneal fluorescein staining score (mean ± SD) (dry eye murine model; Day 10, 10 mM, listed as ALICAFORSEN): 9.7 ± 2.2
- Corneal fluorescein staining score (mean ± SD) (dry eye murine model; Day 10, 10 mM, listed as alicaforsen): lower than the Vehicle group
- TLR-9 inhibitory activity of spermine-treated samples (TLR9 [2]): some activity is still observed
- effect of spermine on secondary structure ([3]; 5 mM spermine in the presence of 50 mM Na+): completely abolished the secondary structure
- structure retained (190 nm peak intensity) ([3]; 50 and 150 mM sodium, 40° C.): at least 50%
- loss of signal strength of 190 nm CD band ([3]; ddH20, heating to 80° C.): > 85%
- agonist activity at TLR-9 (TLR9 [4]): devoid of agonist activity
- TLR-9 antagonism (TLR9 [5]; ODN2006 as activator): antagonist of TLR-9
- concentration needed for TLR-9 antagonism relative to inhibition of ICAM-1 expression (TLR9 [5]; comparative dose responses, FIG. 3): requires higher concentrations than the inhibition of ICAM-1 expression
- antagonism of TLR-9 activation by E. coli genomic DNA (TLR9 [6]): remained antagonistic to activation of TLR-9
